Each structure is given as a SMILES string. Where a name gives a salt, the structure may show the parent alone. Where only a bound is given, the exact number is not on record here.

In the experiment the target is Glycogen synthase kinase-3 beta (Homo sapiens, UniProt P49841). Put plainly: GSK3beta kinase inhibitor potency, dose response, biochemical, luminescence, cell-free homogeneous, retest (AID 434954).
Chain of Glycogen synthase kinase-3 beta (P49841 whole entry): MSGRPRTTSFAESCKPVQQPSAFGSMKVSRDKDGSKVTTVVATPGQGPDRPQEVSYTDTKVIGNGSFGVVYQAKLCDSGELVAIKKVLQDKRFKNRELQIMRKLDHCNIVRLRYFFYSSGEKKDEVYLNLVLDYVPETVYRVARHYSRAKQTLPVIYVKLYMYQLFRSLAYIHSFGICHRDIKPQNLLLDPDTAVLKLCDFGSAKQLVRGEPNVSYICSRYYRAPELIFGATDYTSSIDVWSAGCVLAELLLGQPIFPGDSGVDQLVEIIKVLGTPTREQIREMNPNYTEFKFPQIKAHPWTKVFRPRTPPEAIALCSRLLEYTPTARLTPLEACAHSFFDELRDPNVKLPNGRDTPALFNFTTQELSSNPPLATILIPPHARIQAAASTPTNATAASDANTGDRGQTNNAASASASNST
`O=C(C1=C[C@@H](c2ccc(C(F)(F)F)cc2)C[C@@H](OCCCCO)O1)N1CCN(Cc2ccccc2)CC1` [SMR000389639] returned a half-maximal effective concentration (EC50) of over 300 µM.
`O=C(Nc1ccc(O)c2c(=O)cc(-c3ccccc3Cl)oc12)c1cccc(Cl)c1` had a concentration giving a half-maximal response (EC50) of 87.4 µM. In other words, the double-digit micromolar range.
As for `Nn1c(-c2cccs2)nc2sc3c(c2c1=O)CCCC3` [3-azanyl-2-thiophen-2-yl-5,6,7,8-tetrahydro-[1]benzothiolo[2,3-d]pyrimidin-4-one], the EC50 is over 300 µM.
Compound `COc1cccc(C(=O)Nc2nc(-c3ccncc3)cs2)c1` [3-methoxy-N-(4-pyridin-4-yl-1,3-thiazol-2-yl)benzamide] registered an EC50 of over 300 µM.
Turning to `CC1=NC(=O)NC(c2ccccc2OC(F)F)C1C(=O)OCc1ccccc1` (centres undefined), a half-maximal effect (EC50) was put at 4.4 µM.
The compound `COc1ccccc1-c1c(C(F)(F)F)oc2c(CN(C)C)c(O)ccc2c1=O` [MLS001206868] had an EC50 of over 300 µM.
Compound `COc1ccc2oc3cc(C)[n+]([O-])c(-c4ccc(Br)cc4)c3c2c1` [MLS000588179] showed an EC50 of over 300 µM.
To `Cc1c(C(=O)OCc2ccccc2)nnn1-c1nonc1N` [(phenylmethyl) 1-(4-azanyl-1,2,5-oxadiazol-3-yl)-5-methyl-1,2,3-triazole-4-carboxylate] belongs 7.34 µM; to `N#Cc1c(-c2cccs2)nc(SCc2ccc(Cl)cc2)[nH]c1=O` [MLS000705749], over 300 µM.
Regarding `COc1cccc(C2C3=C(CC(C)(C)CC3=O)N=C(C)C2C#N)c1` (centres undefined) [4-(3-methoxyphenyl)-2,7,7-trimethyl-5-oxo-1,4,5,6,7,8-hexahydro-3-quinolinecarbonitrile], the EC50 was over 300 µM.
To `CCN1CCN(c2cc(C)c3cc(NC(=O)c4cccc(OC)c4)ccc3n2)CC1` [N-[2-(4-ethylpiperazin-1-yl)-4-methyl-quinolin-6-yl]-3-methoxy-benzamide] belongs over 300 µM; to `COc1cccc2c1cc1c(=O)n(CC(=O)NCc3ccccn3)nc(C)n12` [2-(9-methoxy-4-methyl-1-oxo-[1,2,4]triazino[4,5-a]indol-2-yl)-N-(pyridin-2-ylmethyl)acetamide], over 300 µM; to `CCOC(=O)c1nnn(CC(=O)Nc2cccc(OC)c2)c1C(=O)OCC`, over 300 µM.
Next, `COc1ccc(CN(CC(=O)NCc2ccco2)C(=O)CCC(=O)Nc2ccccn2)cc1` [N'-[2-(2-furanylmethylamino)-2-oxoethyl]-N'-[(4-methoxyphenyl)methyl]-N-(2-pyridinyl)butanediamide]: over 300 µM; `CC1CCCCN1c1ncnc(N)c1[N+](=O)[O-]` (centres undefined) [6-(2-methylpiperidin-1-yl)-5-nitro-pyrimidin-4-amine]: 8.18 µM.
Next, `CCc1nn(CC(=O)NCCCc2ccccc2)c(=O)c2cc3c(OC)cccc3n12` [SMR000624506]: over 300 µM; `CC(C)OC(=O)c1nnn(-c2nonc2N)c1CSc1ccccn1` [1-(4-amino-1,2,5-oxadiazol-3-yl)-5-[(2-pyridinylthio)methyl]-4-triazolecarboxylic acid propan-2-yl ester]: 54.1 µM; `Cc1ccc(S(=O)(=O)NC2=NC(=O)/C(=C/c3ccccc3)S2)cc1` [4-methyl-N-[(5Z)-4-oxo-5-(phenylmethylene)-2-thiazolyl]benzenesulfonamide]: over 300 µM.
On to `CCN1/C(=C/c2ccc3cccc(C)c3[n+]2CC)Sc2ccccc21` [(2Z)-3-ethyl-2-[(1-ethyl-8-methyl-2-quinolin-1-iumyl)methylidene]-1,3-benzothiazole;iodide], for which the EC50 was over 300 µM.
In turn, `CC(NCCC(Cc1ccccc1)c1ccco1)c1ccccc1` (centres undefined) [SMR000294034] displayed an EC50 of over 300 µM.
To `CCSc1nnc(NC(=O)CSc2nnc(CNC(=O)c3cc(OC)c(OC)c(OC)c3)o2)s1` [N-[[5-[2-[(5-ethylsulfanyl-1,3,4-thiadiazol-2-yl)amino]-2-oxoethyl]sulfanyl-1,3,4-oxadiazol-2-yl]methyl]-3,4,5-trimethoxybenzamide] belongs over 300 µM; to `COc1ccc(/C=C2\Sc3ccc(C(=O)NCCN4CCCCCC4)cc3N(C)C2=O)cc1` [(2Z)-N-[2-(azepan-1-yl)ethyl]-2-[(4-methoxyphenyl)methylidene]-4-methyl-3-oxo-1,4-benzothiazine-6-carboxamide], 43.3 µM; to `COc1cc(C(c2nnnn2C(C)(C)C)N2CCN(c3nc4ccccc4s3)CC2)ccc1O` (centres undefined) [MLS000027473], over 300 µM.
Compound `O=C(NCCCn1ccnc1)c1ccco1` showed an EC50 of over 300 µM.
Turning to `COc1cccc(C2c3cc4c(cc3N=C3CC(C)(C)CC(=O)C32)OCO4)c1` (centres undefined) [MLS000522404], the EC50 is over 300 µM.
`CCOc1cc(C=NN=C(N)N)ccc1OCc1ccc(Cl)cc1` [N''-{4-[(4-chlorobenzyl)oxy]-3-ethoxybenzylidene}carbonohydrazonic diamide] displayed an EC50 of over 300 µM.
Turning to `Cc1ccc(N2CC(C(=O)NCCCn3ccnc3)CC2=O)cc1` (centres undefined) [MLS000069041], the EC50 is over 300 µM.
`CCCc1cc(=O)oc2cc(C)c3c(C)coc3c12` [MLS000112563] yielded an EC50 of over 300 µM.
Turning to `CCN1CCN(C(=O)Cn2nc(C)n3c(cc4c(OC)cccc43)c2=O)CC1` [MLS001076371], the EC50 was over 300 µM.
In the case of `c1ccc(Nc2ccnc(Nc3ccccc3)n2)cc1` [N*2*,N*4*-Diphenyl-pyrimidine-2,4-diamine], the EC50 turned out to be 37.6 µM.
On to `C=CCn1c(SCC(=O)Nc2ccc(Cl)cn2)nnc1C1CC1`, for which the EC50 is 40 µM.
Next, `CC(=O)Nc1ccc(S(=O)(=O)c2cc(O)ccc2O)cc1`: over 300 µM; `Cc1cc(C(=O)OCCN2C(=O)c3ccccc3C2=O)c2ccccc2n1` [MLS000565821]: over 300 µM.
To `CCCCc1c(O)nc(SCC(=O)c2ccccc2)n(-c2ccccc2OC)c1=O` [5-Butyl-6-hydroxy-3-(2-methoxy-phenyl)-2-(2-oxo-2-phenyl-ethylsulfanyl)-3H-pyrimidin-4-one] belongs over 300 µM; to `Oc1cccc(Nc2nc(-c3ccccc3)nc3ccccc23)c1`, over 300 µM.
Next, `O=C1/C(=C\c2ccc(O)cc2)SC(=S)N1Cc1ccccc1` [(5E)-5-[(4-hydroxyphenyl)methylidene]-3-(phenylmethyl)-2-sulfanylidene-1,3-thiazolidin-4-one]: over 300 µM; `CC1=Nc2ncnn2C(c2ccco2)C1C(=O)OCc1ccccc1` (centres undefined) [benzyl 7-(furan-2-yl)-5-methyl-1,7-dihydro-[1,2,4]triazolo[1,5-a]pyrimidine-6-carboxylate]: 40.7 µM; `NC(=NNC(=O)c1ccc(Cl)cc1)c1cnccn1` [N-[(Z)-[azanyl(pyrazin-2-yl)methylidene]amino]-4-chloranyl-benzamide]: over 300 µM.
In turn, `O=c1c2[nH]c3ccccc3c2ncn1C1CCCCC1` [SMR000039546] returned an EC50 of over 300 µM.
Turning to `COc1cc(C2C(C(=O)c3cccs3)C(=O)C(=O)N2CCN2CCOCC2)ccc1OCCC(C)C` (centres undefined) [SMR000476070], the EC50 was over 300 µM.
Turning to `O=C(Cn1c2ccccc2c(=O)c2ccccc21)Nc1ccccc1F` [N-(2-fluorophenyl)-2-(9-oxoacridin-10-yl)acetamide], the EC50 was over 300 µM.
`COc1ccc(Nc2nc(NCCCN3CCOCC3)nc(N)c2[N+](=O)[O-])cc1` [N4-(4-methoxyphenyl)-N2-(3-morpholin-4-ylpropyl)-5-nitro-pyrimidine-2,4,6-triamine] came in with a concentration for a half-maximal effect (EC50) of 1.11 µM.
Compound `O=C(O)/C=C/c1cn(-c2ccccc2)nc1-c1cccc([N+](=O)[O-])c1` [MLS000774824] gave a half-maximal effective concentration (EC50) of over 300 µM.
The compound `O=C(Nc1ccccc1C(=O)O)c1nnc[nH]1` registered an EC50 of over 300 µM.
With `Cn1nc(C(F)(F)F)c2cc(NC(=O)OCc3ccc(C(C)(C)C)cc3)sc21` [(4-tert-butylphenyl)methyl N-[1-methyl-3-(trifluoromethyl)thieno[2,3-c]pyrazol-5-yl]carbamate], the EC50 was over 300 µM.
In turn, `Nc1nc(NCCCN2CCOCC2)nc(Nc2ccc(F)cc2)c1[N+](=O)[O-]` [4-N-(4-fluorophenyl)-2-N-(3-morpholin-4-ylpropyl)-5-nitropyrimidine-2,4,6-triamine] gave an EC50 of over 300 µM.
Take `CCOC(=O)c1sc(Nc2ccccc2)nc1C`: the half-maximal effective concentration (EC50) is over 300 µM.
Take `COC(=O)c1ccc(Nc2nc(-c3ccncc3)nc3ccccc23)cc1` [4-[(2-pyridin-4-yl-4-quinazolinyl)amino]benzoic acid methyl ester]: the EC50 was over 300 µM.
Next, `COC(=O)c1ccccc1OCCOc1ccccc1C(=O)OC`: over 300 µM; `COc1cc([CH+][N-]NC(=O)c2ccncc2)ccc1Oc1ccc([N+](=O)[O-])cn1` [N-[[3-methoxy-4-[(5-nitro-2-pyridinyl)oxy]phenyl]methylideneamino]-4-pyridinecarboxamide]: over 300 µM; `CCNc1nc(N)nc(-c2cc(Cl)ccc2O)n1` [(6E)-6-[6-amino-4-(ethylamino)-1H-1,3,5-triazin-2-ylidene]-4-chloro-1-cyclohexa-2,4-dienone]: 3.56 µM.
In the case of `O=C(c1cccs1)c1coc2ccc(O)c(CN(CCO)CCO)c12` [[4-[[bis(2-hydroxyethyl)amino]methyl]-5-oxidanyl-1-benzofuran-3-yl]-thiophen-2-yl-methanone;hydrochloride], the EC50 was over 300 µM.
On to `CC(C)c1c(C(=O)NN=Cc2ccoc2)nnn1-c1nonc1N` [MLS001139450], for which the EC50 is over 300 µM.
On to `COc1ccc(OC)c(C(O)c2coc3ccc(O)c(CN(C)C)c23)c1` (centres undefined), for which the EC50 is over 300 µM.
As to `Cn1c(SCC(=O)NC2CCCCC2)nnc1-c1ccccn1`, the EC50 is over 300 µM.
Turning to `COC(=O)c1nnn(-c2nonc2N)c1CN1CCc2ccccc21` [1-(4-amino-1,2,5-oxadiazol-3-yl)-5-(2,3-dihydroindol-1-ylmethyl)-4-triazolecarboxylic acid methyl ester], the EC50 was found to be 6.97 µM.
The compound `Cc1nnc(SCC(=O)Nc2nccs2)n(N)c1=O` [SMR000323668] registered an EC50 of over 300 µM.
`O=C(Oc1ccc(F)c(F)c1)c1ccc2c(=O)n3c(nc2c1)CCC3` [9-oxo-2,3-dihydro-1H-pyrrolo[2,1-b]quinazoline-6-carboxylic acid (3,4-difluorophenyl) ester] showed an EC50 of over 300 µM.
To `CC(=O)Nc1cccc(Nc2nc(-c3ccccc3)nc3ccccc23)c1` [SMR000384461] belongs over 300 µM.

(Values after BindingDB's records for doi:10.7270/Q2TX3CTT (Broad Institute, 2010).)
